Like-named read-outs stand apart in the source and are kept apart here.
Assays:
Wee1 protein = molecular target: T1, Wee1 protein (Homo sapiens, UniProt P30291); test: Binding of compound to Wee1 protein and Tracer 178 by TR-FRET; conditions: inhibitory activity against Wee1 kinase, read-out: IC50 measured value
T1 construct: purchased Thermo Fisher PR7373A
Protocol: First, solutions of the compounds in different concentration gradients were prepared. […] DMSO was added as a positive control (maximal signal control) and a negative control (minimal signal control) and a final level of 0.25% DMSO was ensured in each reaction well.
WEE1 (Thermo Fisher, Cat #PR7373A) protein in buffer (50 mM Hepes pH 7.5, 10 mM MgCl2, 1 mM EGTA, 0.01% Brij-35) at 15 nM) in different concentrations of compound, and Tracer 178 (Invitrogen, PV5593) and MAb Anti-GST-Eu crypate (Cisbio, 61GSTKLA) were added to 384-well plates (Corning, cat #3574), centrifuged at 1000 rpm for 1 min and the 384-well plates were incubated in a constant temperature shaker for 60 min at 25° C. and 300 rpm. Tracer 178 and MAb Anti-GST-Eu crypate were prepared in buffer (50 mM HEPES pH 7.5, 10 mM MgCl2, 1 mM EGTA, 0.01% Brij-35) with a final reaction concentration of 50 nM for Tracer 178 and a final concentration of 2 nM for MAb Anti-GST-Eu crypate, where the negative control (minimal signal control) used an equal amount of buffer in place of the protein solution.
After incubation, readings were performed using BMG PHERAStar (excitation light at 337 nm and emission light at wavelength values of 620 nm and 665 nm to read the fluorescence signal values). […] The IC50 for inhibition of enzyme activity by the compounds was then calculated using GraphPad Prism 6 and fitted with a log (inhibitor) vs. response-Variable slope mode. The fitting equation was: Y=Bottom+(Top-Bottom)/(1+10^((Log IC50−X)*HillSlope)), where Y represents the percentage of residual enzyme activity known and X represents the known concentration of compound after the logarithm.

H1299 cells = test: Anti-proliferative effect by Cell Titer-Glo, H1299; assay type: cell-based; conditions: Homo sapiens, NCI-H1299, 72 h, read-out: IC50 measured value H1299
Protocol: (§1) Compound solutions of different concentration gradients were prepared. DMSO was dissolved to a concentration of 10 mM test compound and 10 mM reference compound AZD1775, and the compounds were serially diluted in culture medium for a total of 9 dose points, with 2 parallel replicates set at each concentration. The cell growth group without compound was used as a positive control (maximum signal control) and the medium was used as a negative control (minimum signal control), while ensuring that the final level of DMSO in each reaction well was 0.2%. After removing the medium from the 384-well plate, 25 ul of the configured compound at different concentrations was transferred into the well plate and the compound and cells were incubated in the cell incubator at 37° C. with 5% CO2 for 3 days.
(§2) The 384-well plates were removed from the cell incubator and allowed to equilibrate for 1 h to room temperature. 25 ul of Cell Titer-Glo assay was added to each well, lysed on a shaker for 2 min and then read out (Luminescence) using a BMG PHERAStar after 10 min incubation. Calculate the inhibition rate from the luminescence signal: first calculate the average of the positive control (maximum signal control) and the negative control (minimum signal control).
(§3) [formula] to calculate the rate of inhibition of the cells by different concentrations of the compounds. The IC50 of the compound on cell activity inhibition was calculated by fitting a log(inhibitor) vs. response-Variable slope model to GraphPad Prism 6. The fitted equation was: Y=Bottom+(Top−Bottom)/(1+10^((Log IC50−X)*HillSlope)), where Y represents the rate of inhibition and X represents the concentration of the known compound after Log.

MIA Paca-2 cells = test: Anti-proliferative effect by Cell Titer-Glo, MIA Paca-2; assay type: cell-based; conditions: Homo sapiens, read-out: IC50 measured value MIA Paca-2
Protocol: as §1, §2, §3

[1] = H1299 cells, 3 days, Cell Titer-Glo
[2] = 72 h, MIA Paca-2 cells, 3 days, Cell Titer-Glo

T1 sequence (P30291 whole entry): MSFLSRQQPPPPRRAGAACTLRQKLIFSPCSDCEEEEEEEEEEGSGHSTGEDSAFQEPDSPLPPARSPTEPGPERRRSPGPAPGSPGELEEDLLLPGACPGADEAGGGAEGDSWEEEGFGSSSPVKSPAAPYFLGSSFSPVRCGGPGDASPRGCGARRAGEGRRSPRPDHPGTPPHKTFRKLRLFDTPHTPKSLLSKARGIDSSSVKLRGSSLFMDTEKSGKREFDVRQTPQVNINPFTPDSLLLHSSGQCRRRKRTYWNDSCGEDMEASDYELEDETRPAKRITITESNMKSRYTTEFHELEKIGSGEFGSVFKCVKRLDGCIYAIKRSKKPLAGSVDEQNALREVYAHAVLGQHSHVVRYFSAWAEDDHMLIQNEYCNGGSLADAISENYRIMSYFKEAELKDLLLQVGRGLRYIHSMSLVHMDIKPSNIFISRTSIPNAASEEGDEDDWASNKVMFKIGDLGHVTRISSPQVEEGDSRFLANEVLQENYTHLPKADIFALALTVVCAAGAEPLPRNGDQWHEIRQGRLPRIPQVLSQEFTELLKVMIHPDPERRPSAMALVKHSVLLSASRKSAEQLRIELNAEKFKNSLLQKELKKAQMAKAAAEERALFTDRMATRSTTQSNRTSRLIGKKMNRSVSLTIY

Compound | IC50 (Wee1 protein) [nM] | IC50 (H1299 cells; [1]) [nM] | IC50 (MIA Paca-2 cells; [2]) [nM] | IC50 (H1299 cells) [nM] | IC50 (MIA Paca-2 cells; MIA PaCa-2, 72 h) [nM]
Cc1nc2ccc(-n3ncc4cnc(Nc5ccc(N6CCN(C)CC6)cc5)nc43)cc2n1C [Compound 58] | 10 to 100 | < 100 | 100 to 1000 |  | 
CN1CCN(c2ccc(Nc3ncc4cnn(-c5ccc6c(c5)C(O)CO6)c4n3)cc2)CC1 (centres unmarked) [Compound 39] | 10 to 100 | 1000 to 5000 | 100 to 1000 |  | 
CN1CCN(c2ccc(Nc3ncc4cnn(-c5ccc6c(c5)C(=O)NCC6)c4n3)cc2)CC1 [Compound 38] | 10 to 100 | 100 to 1000 | 100 to 1000 |  | 
CN1CCN(c2ccc(Nc3ncc4cnn(-c5cccc(C6(S(C)(=O)=O)CC6)n5)c4n3)cc2)CC1 [Compound 5] | 10 to 100 |  |  | 1000 to 5000 | 
CN1CCC2(CC1)CCN(c1ccc(Nc3ncc4cnn(-c5cccc(N=S(C)(C)=O)n5)c4n3)cc1)CC2 [Compound 25] | 1 to 10 | 100 to 1000 | 100 to 1000 |  | 
CN1CCN(c2ccc(Nc3ncc4cnn(-c5cncc(N=S(C)(C)=O)c5)c4n3)cc2)CC1 [Compound 31] | 10 to 100 | 1000 to 5000 | 100 to 1000 |  | 
COc1nn(-c2cccc(N=S(C)(C)=O)n2)c2nc(Nc3ccc(N4CCN(C)CC4)cc3)ncc12 [Compound 27B] | 10 to 100 | 1000 to 5000 | 100 to 1000 |  | 
CN1CCN(c2ccc(Nc3ncc4cnn(-c5ccc(F)c(C(C)(C)O)c5)c4n3)cc2)CC1 [Compound 42] | 10 to 100 | 100 to 1000 | 100 to 1000 |  | 
CN1CCN(c2ccc(Nc3ncc4cnn(-c5ccc6c(c5)c(N)nn6C)c4n3)cc2)CC1 [Compound 49] | 100 to 1000 |  |  | 1000 to 5000 | 1000 to 5000
CCC1(O)CCc2ccc(-n3ncc4cnc(Nc5ccc(N6CCN(C)CC6)cc5)nc43)nc21 (centres unmarked) [Compound 57] | 100 to 1000 | 1000 to 5000 | 100 to 1000 |  | 
CN(C)C1CCN(c2ccc(Nc3ncc4cnn(-c5cccc(N=S(C)(C)=O)n5)c4n3)cc2)CC1 [Compound 9] | 1 to 10 |  |  | 1000 to 5000 | 
CN1CCN(c2ccc(Nc3ncc4cnn(-c5cccc(C(C)(O)C(F)(F)F)n5)c4n3)cc2)CC1 (centres unmarked) [Compound 4] | 10 to 100 | 1000 to 5000 |  |  | 
CN1CCN(c2ccc(Nc3ncc4cnn(-c5ccc6c(c5)C(=O)NC6)c4n3)cc2)CC1 [Compound 46] | 10 to 100 | 1000 to 5000 | 100 to 1000 |  | 
CN1CCN(c2ccc(Nc3ncc4cnn(-c5cccc(-n6ccccc6=O)n5)c4n3)cc2)CC1 [Compound 54] | 10 to 100 | 5000 to 20000 | 1000 to 5000 |  | 
CN1CCN(c2ccc(Nc3ncc4cnn(-c5ccnc(C(C)(C)O)c5)c4n3)cc2)CC1 [Compound 29] | 100 to 1000 | 100 to 1000 | 100 to 1000 |  | 
CN1CCN(c2c(Cl)cc(Nc3ncc4cnn(-c5cccc(N=S(C)(C)=O)n5)c4n3)cc2Cl)CC1 [Compound 17] | 10 to 100 | 5000 to 20000 | 100 to 1000 |  | 
CS(C)(=O)=Nc1cccc(-n2ncc3cnc(Nc4ccc(CC5C(=O)C6CCN5CC6)cc4)nc32)n1 (centres unmarked) [Compound 15] | 10 to 100 | 1000 to 5000 | 100 to 1000 |  | 
CN1CCN(c2ccc(Nc3ncc4cnn(-c5ccc6nncn6c5)c4n3)cc2)CC1 [Compound 62] | 100 to 1000 | 5000 to 20000 | 1000 to 5000 |  | 
CN1CCN(c2ccc(Nc3ncc4cnn(-c5cccc(N=S(C)(C)=O)c5F)c4n3)cc2)CC1 [Compound 33] | 100 to 1000 | 1000 to 5000 | 1000 to 5000 |  | 
CN1CCN(c2ccc(Nc3ncc4cnn(-c5ccc6scnc6c5)c4n3)cc2)CC1 [Compound 37] | 10 to 100 | 100 to 1000 | 100 to 1000 |  | 
CS(C)(=O)=Nc1cccc(-n2ncc3cnc(Nc4ccc5c(c4)CNCC5)nc32)n1 [Compound 7] | 1 to 10 | 1000 to 5000 |  |  | 

Compound | IC50 (Wee1 protein) [nM] | IC50 (H1299 cells; [1]) [nM] | IC50 (MIA Paca-2 cells; [2]) [nM] | IC50 (H1299 cells) [nM] | IC50 (MIA Paca-2 cells; MIA PaCa-2, 72 h) [nM]
CN1CCN(c2ccc(Nc3ncc4cnn(-c5cccc(-n6ccccc6=O)c5)c4n3)cc2)CC1 [Compound 48] | 10 to 100 | 1000 to 5000 | 1000 to 5000 |  | 
COc1cc(Nc2ncc3cnn(-c4cccc(N=S(C)(C)=O)n4)c3n2)ccc1N1CCN(C)CC1 [Compound 26] | 1 to 10 | 1000 to 5000 | 100 to 1000 |  | 
CN1CCN(c2ccc(Nc3ncc4cnn(-c5ccc6ncc(C(C)(C)O)n6c5)c4n3)cc2)CC1 [Compound 55] | 10 to 100 | 1000 to 5000 | 1000 to 5000 |  | 
CN1CCN(c2ccc(Nc3ncc4c(=O)n(C)n(-c5cccc(N=S(C)(C)=O)n5)c4n3)cc2)CC1 [Compound 27A] | 1 to 10 | 100 to 1000 | 100 to 1000 |  | 
CN1CCN(c2ccc(Nc3ncc4cnn(-c5cccc(N=S(C)(C)=O)c5)c4n3)cc2)CC1 [Compound 30] | 10 to 100 |  |  | 1000 to 5000 | 100 to 1000
CN1CCN(c2ccc(Nc3ncc4cnn(-c5cccc(N=S(C)(C)=O)n5)c4n3)cc2CO)CC1 [Compound 23] | 1 to 10 | 100 to 1000 | 100 to 1000 |  | 
CN1CCN(c2ccc(Nc3ncc4cnn(-c5cccc(C(C)(C)O)c5)c4n3)cn2)CC1 [Compound 47] | 100 to 1000 | 100 to 1000 | 100 to 1000 |  | 
CN1CCN(c2ccc(Nc3ncc4cnn(-c5cncc(C(C)(C)O)c5)c4n3)cc2)CC1 [Compound 32] | 100 to 1000 | 100 to 1000 | 100 to 1000 |  | 
CCN1C(=O)C2(CC2)c2ccc(-n3ncc4cnc(Nc5ccc(N6CCN(C)CC6)cc5)nc43)cc21 [Compound 61] | 100 to 1000 |  |  | 5000 to 20000 | 1000 to 5000
COc1cc(N2CCN(C)CC2)ccc1Nc1ncc2cnn(-c3cccc(N=S(C)(C)=O)n3)c2n1 [Compound 22] | 100 to 1000 | 5000 to 20000 | 5000 to 20000 |  | 
CN1CC2CC1CN2c1ccc(Nc2ncc3cnn(-c4cccc(N=S(C)(C)=O)n4)c3n2)cc1 (centres unmarked) [Compound 13] | 1 to 10 | 5000 to 20000 |  |  | 
CN1CCN(c2ccc(Nc3ncc4c(C(F)(F)F)nn(-c5cccc(C(C)(C)O)c5)c4n3)cc2)CC1 [Compound 35] | 100 to 1000 | 5000 to 20000 | 5000 to 20000 |  | 
CCn1ncc2ccc(-n3ncc4cnc(Nc5ccc(N6CCN(C)CC6)cc5)nc43)nc21 [Compound 60] | 10 to 100 |  |  | 1000 to 5000 | 100 to 1000
CN1CCN(c2ccc(Nc3ncc4c(C(F)(F)F)nn(-c5cccc(N=S(C)(C)=O)n5)c4n3)cc2)CC1 [Compound 24] | 10 to 100 |  |  | 1000 to 5000 | 1000 to 5000
Cc1nc2cccc(-n3ncc4cnc(Nc5ccc(N6CCN(C)CC6)cc5)nc43)c2o1 [Compound 51] | 10 to 100 | 100 to 1000 | 100 to 1000 |  | 
CN1CCN(c2ccc(Nc3ncc4cnn(-c5ccc6cc[nH]c6c5)c4n3)cc2)CC1 [Compound 41] | 10 to 100 | 1000 to 5000 | 1000 to 5000 |  | 
CN1CCN(c2ccc(Nc3ncc4cnn(-c5cccc6c5CCC6(C)O)c4n3)cc2)CC1 (centres unmarked) [Compound 44] | 100 to 1000 | 100 to 1000 | 100 to 1000 |  | 
CN1CCN(C2CCN(c3ccc(Nc4ncc5cnn(-c6cccc(N=S(C)(C)=O)n6)c5n4)cc3)CC2)CC1 [Compound 20] | 1 to 10 | 1000 to 5000 | 100 to 1000 |  | 
CN1CCN(c2ccc(Nc3ncc4cnn(-c5cc(C(C)(C)O)ccn5)c4n3)cc2)CC1 [Compound 34] | 100 to 1000 | 100 to 1000 | 100 to 1000 |  | 
CN1CCc2ccc(Nc3ncc4cnn(-c5cccc(N=S(C)(C)=O)n5)c4n3)cc2C1 [Compound 8] | 1 to 10 | 1000 to 5000 |  |  | 
CN1CCN(c2ccc(Nc3ncc4cnn(-c5cccc(C(C)(C)O)c5)c4n3)cc2)CC1 [Compound 12] | 10 to 100 | 100 to 1000 |  |  | 

— patent publication US12649748B2, “Wee1 inhibitor and use thereof” (JIANGSU TASLY DIYI PHARMACEUTICAL CO., LTD., priority 2021, dated 2026)
